Results reported in patent US20020183290A1, “Adrenergic receptor antagonists selective for both alpha1A-and alpha1D-subtypes and uses therefor” (Recordati S.A., Chemical and Pharmaceutical Company, priority 2001, published 2002).
Where two headings read alike, the source gives them in different places.

Key:
[1] = target: T1, cloned α1d-adrenoceptor subtype (Homo sapiens, UniProt P25100); test: Radioligand binding assay ([3H]prazosin), cloned α1d-adrenoceptor subtype; conditions: read-out: Binding Affinity (Ki nM) α1d
T1 construct: expressed in transfected cells
T1 sequence (P25100 1-572): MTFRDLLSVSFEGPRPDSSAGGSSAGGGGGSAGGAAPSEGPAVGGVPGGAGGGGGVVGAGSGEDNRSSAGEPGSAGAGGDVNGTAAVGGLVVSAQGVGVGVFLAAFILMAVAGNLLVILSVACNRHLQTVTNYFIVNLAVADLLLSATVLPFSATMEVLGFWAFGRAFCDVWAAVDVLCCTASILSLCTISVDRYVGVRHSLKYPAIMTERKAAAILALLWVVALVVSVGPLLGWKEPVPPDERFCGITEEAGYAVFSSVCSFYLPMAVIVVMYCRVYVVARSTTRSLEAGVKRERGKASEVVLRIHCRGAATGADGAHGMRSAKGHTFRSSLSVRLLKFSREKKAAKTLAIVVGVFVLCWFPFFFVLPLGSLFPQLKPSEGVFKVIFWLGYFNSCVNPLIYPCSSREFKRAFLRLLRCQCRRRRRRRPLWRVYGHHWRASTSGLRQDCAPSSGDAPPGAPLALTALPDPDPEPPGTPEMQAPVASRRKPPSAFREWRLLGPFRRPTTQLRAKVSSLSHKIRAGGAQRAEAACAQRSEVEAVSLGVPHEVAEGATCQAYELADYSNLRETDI
Protocol: (§1) Springer-Verlag, pp. 10-12). […] The results from these assays are used to calculate a measure of receptor selectivity, expressed as the ratio of affinities (Ki) for a given pair of receptors.
(§2) Determination of affinity for cloned subtypes of α1-adrenoceptor subtypes was performed in membranes from cells transfected by electroporation with DNA expressing the genes encoding each α1-adrenoceptor subtype.
(§3) Non-specific binding was determined in the presence of 10 μM phentolamine. Incubation was stopped by addition of ice-cold Tris buffer and rapid filtration through 0.2% polyethyleneimine-pretreated Schleicher & Schuell GF52 filters. […] Data were expressed as mean Ki.

[2] = target: T2, cloned α1a-adrenoceptor subtype (Homo sapiens, UniProt P35348); test: Radioligand binding assay ([3H]prazosin), cloned α1a-adrenoceptor subtype; conditions: read-out: Binding Affinity (Ki nM) α1a
T2 construct: expressed in transfected cells
T2 sequence (P35348 1-466): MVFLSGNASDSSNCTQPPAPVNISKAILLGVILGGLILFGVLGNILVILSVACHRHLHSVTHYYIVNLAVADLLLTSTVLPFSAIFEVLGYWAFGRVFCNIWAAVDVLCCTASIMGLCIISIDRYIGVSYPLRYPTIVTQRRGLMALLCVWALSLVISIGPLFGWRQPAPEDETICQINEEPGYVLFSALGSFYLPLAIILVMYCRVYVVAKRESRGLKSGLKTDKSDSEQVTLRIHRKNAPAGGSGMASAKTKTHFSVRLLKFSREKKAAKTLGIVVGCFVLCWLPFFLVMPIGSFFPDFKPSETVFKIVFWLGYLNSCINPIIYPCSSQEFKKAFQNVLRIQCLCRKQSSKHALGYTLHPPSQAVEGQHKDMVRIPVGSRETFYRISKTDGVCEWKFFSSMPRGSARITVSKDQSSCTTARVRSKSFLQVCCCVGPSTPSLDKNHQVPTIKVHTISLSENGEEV
Protocol: as §1, §2, §3

[3] = system: conscious rats with partial urethral obstruction; test: Cystometry in conscious rats obstructed by partial urethra ligature (unstable-bladder contractions); assay type: in vivo, rat; conditions: for inhibition in vivo at 1 mg/kg / inhibition in vivo at 3 mg/kg: 2 min; for Amplitude of non-effective micturition contractions, After Treat. / Frequency (number) of non-effective micturition contractions, After Treat.: after treatment; for Activity as inhibitors of unstable-bladder contractions (in words): obstructed conscious rats, summary of Tables 1 and 2
Description: A useful animal model system for measuring such pharmacological activity is, without limitation, cystometry in conscious rats with partial bladder-neck obstruction. […] This model is reported in the literature as related to LUTS occurring in patients having obstructive urethral syndromes (Michel, 2000, Drugs of Today. 386 (Supp. B2): 3-6)
In order to obtain a partial obstruction of the urethra, the method previously reported by Malgren (Nalgren et al., 1987, J. Urol. 137:1291-1294; 1988, Neurourol. Urodyn. 6:371), was followed with minor modifications (Guarneri et al., 1991, Pharmacol. Res. 24:263).
Female rats of the Sprague-Dawley strain [Crl:CD(SD)BR, from Charles River Italia, Calco, Como, Italy] weighing 225-275 g were used. The animals were maintained in constant temperature and humidity conditions, on a forced 12-hour light-dark cycle and with food and water ad libitum for at least one week before the experiment.
After being anaesthetized with 3 ml/kg i.p. equitensin (pentobarbital 1.215 g, chloral hydrate 5.312 g, magnesium sulphate 2.657 g, ethanol 12.5 ml, propylene glycol 49.5 ml, distilled water to 125 ml of final volume), the rats were placed in a supine position and the bladder and urethra were exposed via an incision in the shaven abdomens and gently pulling away the muscle portion. The urethra was cannulated with a polyethylene tube with an outside diameter of 1.22 mm, and the urinary bladder was then emptied and, via the cannula introduced through the urethra, filled with physiological saline. A silk (Ethicon 3/0) ligature was placed around the urethra with the cannula inside and the intraurethral cannula was then removed. The abdominal incision was sutured and, immediately after the operative procedure, antibiotic medication (penicillin G 200 000 I.U./kg i.p. and streptomycin 260 mg/kg i.p.) was performed.
Three weeks after the procedure for partially obstructing the urethra, the animals were prepared for cystometry by surgical insertion into the bladder of a catheter, through which the bladder was gradually filled.
The rats, anaesthetised with equitensin 3 ml/kg i.p., were placed in a supine position and, via an incision of about 10 mm in the abdominal wall, the urinary bladder was exposed and gently freed from surrounding tissues.
The urinary bladder was emptied manually and cannulated, via a small incision at the bladder top, with a polyethylene cannula (type PE-50, 0.58 mm I.D. ×0.96 mm O.D.), which was permanently secured to the bladder with silk thread.
The cannula was exposed through a subcutaneous tunnel in the retroscapular area, where it was fastened with a plastic adapter, in order to avoid the risk of removal by the animal. After washing the urinary bladder with physiological saline, the catheter was sealed using a small flame and the abdominal incision was sutured.
To allow evaluation of the effect of a test compound after intravenous administration, the jugular vein was cannulated with a polyethylene cannula (type PE-50, 0.58 mm I.D.×0.96 mm O.D.) filled with heparinised physiological saline. As for the bladder catheter, this cannula, too, was exteriorised, secured and sealed in the retroscapular area.
Two days after the operation, the rats, fasted overnight, were placed in Bollman's cages or in Bollman's cages modified so as to have an opening in the bottom to allow collection of urinated fluid.
After an adaptation period of 20 minutes, the free end of the bladder cannula was connected to a pressure transducer and a special apparatus which allowed infusion into the urinary bladder of physiological saline at 37° C. at a constant rate of 10 ml/hour. Intravesical pressure changes caused by bladder filling were recorded by the pressure transducer which was connected to a recording polygraph.
From the cystometrograms, the frequency and mean amplitude of spontaneous bladder contractions not inducing micturition, termed “unstable-bladder contractions” (UBC), within 2 minutes prior to micturition were evaluated. […]

[4] = target: T3, cloned α1b-adrenoceptor subtype (Homo sapiens, UniProt P35368); test: Radioligand binding assay ([3H]prazosin), cloned α1b-adrenoceptor subtype; conditions: read-out: Binding Affinity (Ki nM) α1b
T3 construct: expressed in transfected cells
T3 sequence (P35368 1-520): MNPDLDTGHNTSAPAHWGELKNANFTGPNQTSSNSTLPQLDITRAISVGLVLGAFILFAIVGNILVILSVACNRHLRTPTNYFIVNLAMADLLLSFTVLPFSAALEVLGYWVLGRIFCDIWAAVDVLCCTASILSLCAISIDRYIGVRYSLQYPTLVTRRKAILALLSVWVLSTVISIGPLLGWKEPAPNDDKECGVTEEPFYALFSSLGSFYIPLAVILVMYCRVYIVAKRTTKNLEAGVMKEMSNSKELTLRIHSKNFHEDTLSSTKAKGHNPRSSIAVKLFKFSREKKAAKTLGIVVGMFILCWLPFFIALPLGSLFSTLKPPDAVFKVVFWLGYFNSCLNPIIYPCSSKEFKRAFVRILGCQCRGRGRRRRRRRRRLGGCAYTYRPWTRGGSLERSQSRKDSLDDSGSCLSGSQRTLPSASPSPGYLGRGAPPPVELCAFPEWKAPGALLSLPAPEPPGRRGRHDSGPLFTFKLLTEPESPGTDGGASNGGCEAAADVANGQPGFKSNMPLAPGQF
Protocol: as §1, §2, §3

[5] = system: LUTS; conditions: LUTS secondary to BPH; relaxing effects on prostate smooth muscle were present; cited from earlier work
[6] = obstructed rat, 1 mg/kg, 2 minutes before micturition, read-out: % inhibition of amplitude of non-effective micturition contractions
[7] = obstructed rat, 1 mg/kg, 2 minutes before micturition, read-out: % inhibition of frequency of non-effective micturition contractions
[8] = cloned receptor, cell membranes, 0.2 nM [3H]prazosin, mean Ki
[9] = Rattus norvegicus, read-out: % inhibition of amplitude of non-effective micturition contractions
[10] = Rattus norvegicus, read-out: % inhibition of frequency of non-effective micturition contractions

| Ki [1] [nM] | Ki [2] [nM] | Ki [4] [nM] | SMILES | inhibition in vivo at 1 mg/kg [3, 6] [%] | inhibition in vivo at 1 mg/kg [3, 7] [%] | Amplitude of non-effective micturition contractions, After Treat. ([3]; 1.0 mg/kg) [mmHg] | Frequency (number) of non-effective micturition contractions, After Treat. ([3]; 1.0 mg/kg) | Activity as inhibitors of unstable-bladder contractions (in words) [3] | Ki [4, 8] [nM] | Relief of LUTS in clinical trial [5] | inhibition in vivo at 1 mg/kg [3, 9] [%] | inhibition in vivo at 1 mg/kg [3, 10] [%] | inhibition in vivo at 3 mg/kg [3, 9] [%] | inhibition in vivo at 3 mg/kg [3, 10] [%] | Amplitude of non-effective micturition contractions, After Treat. ([3]; 3.0 mg/kg) [mmHg] | Frequency (number) of non-effective micturition contractions, After Treat. ([3]; 3.0 mg/kg) |
| --- | --- | --- | --- | --- | --- | --- | --- | --- | --- | --- | --- | --- | --- | --- | --- | --- |
| 2.7 | 0.8 | – | COc1ccc(Cl)cc1N1CCN(CCCNC(=O)c2c(-c3ccccc3)noc2C)CC1 [Compound B, N-{3-[4-(5-Chloro-2-methoxyphenyl)-1-piperazinyl]propyl}-5-methyl-3-phenylisoxazole-4-carboxamide] | 44 | 49 | 4.2 ± 1.0 | 3.0 ± 0.7 | more potent | 23.6 | – | – | – | – | – | – | – |
| 0.49 | 0.07 | 14.1 | Cc1onc(-c2ccccc2Cl)c1C(=O)NCCCN1CCN(c2ccccc2OCC(F)(F)F)CC1 [Compound D, 3-(2-chlorophenyl)-5-methyl-N-{3-[4-[2-(2,2,2-trifluoroethoxy)phenyl]-1-piperazinyl]propy}isoxazole-4-carboxamide] | 73 | 68 | 2.1 ± 0.7 | 1.7 ± 0.8 | more potent | – | – | – | – | – | – | – | – |
| – | – | – | COc1ccccc1N1CCN(CCCNC(=O)c2cccc3c(=O)c(C)c(-c4ccccc4)oc23)CC1 [Rec 15/2739] | – | – | 7.3 ± 1.3 | 4.8 ± 0.2 | poorly active | – | did not result in relief of LUTS | 29 | 28 | – | – | – | – |

| SMILES | Ki [1] [nM] | Ki [2] [nM] | Ki [4] [nM] | inhibition in vivo at 1 mg/kg [3, 6] [%] | inhibition in vivo at 1 mg/kg [3, 7] [%] | Amplitude of non-effective micturition contractions, After Treat. ([3]; 1.0 mg/kg) [mmHg] | Frequency (number) of non-effective micturition contractions, After Treat. ([3]; 1.0 mg/kg) | Activity as inhibitors of unstable-bladder contractions (in words) [3] | Ki [4, 8] [nM] | Relief of LUTS in clinical trial [5] | inhibition in vivo at 1 mg/kg [3, 9] [%] | inhibition in vivo at 1 mg/kg [3, 10] [%] | inhibition in vivo at 3 mg/kg [3, 9] [%] | inhibition in vivo at 3 mg/kg [3, 10] [%] | Amplitude of non-effective micturition contractions, After Treat. ([3]; 3.0 mg/kg) [mmHg] | Frequency (number) of non-effective micturition contractions, After Treat. ([3]; 3.0 mg/kg) |
| --- | --- | --- | --- | --- | --- | --- | --- | --- | --- | --- | --- | --- | --- | --- | --- | --- |
| Cc1onc(-c2ccccc2)c1C(=O)NCCCN1CCN(c2ccc(F)cc2OCC(F)(F)F)CC1 [Rec 27/0110] | 18.9 | 0.35 | – | – | – | 6.0 ± 1.4 | 4.4 ± 0.8 | poorly active | 69 | – | 21 | 27 | 53 | 49 | 2.3 ± 0.8 | 2.2 ± 0.7 |
